From EP4076431B1, “COMPOSITION AND METHOD FOR THE PREVENTION AND TREATMENT OF TYPE 2 DIABETES” (Vector Vitale IP LLC, priority 2019, dated 2021) come the findings set out here.

Values joined by “and” are separate entries in the source; they are usually repeats but may differ in a detail not shown here. Identical values can stand only once.

Series [1] in a line: Glucose tolerance test. The following applies: dose 5 mg/kg in a volume of 2 ml, individual animals 1-5.
Procedure: Animals that had access only to water 16 hours before the start of the experiment were used in the glucose tolerance test. Rats were anesthetized with intraperitoneal injection of sodium thiopental at a dose of 40 mg/kg. 5 animals were used within the same experimental group. Basal levels of glycaemia were determined in rats, after which the animals were fed 2 ml of aqueous glucose solution at a dose of 3 g/kg. The concentration of glucose was determined 60 minutes after the start of the experiment.
A glucose tolerance test was performed to determine a potential effect of zinc isotope on the dynamics of glucose concentration in the blood flow. Experimental procedure: laboratory animals are given intragastric injections of either normal saline solution or zinc in saline solution (5 mg/kg) in a volume of 2 ml. After that, 60 minutes after the aforementioned injections, the basal level of glucose is measured and a glucose solution is injected in an amount of 3 g/kg in a volume of 2 ml using the same route of administration. The blood glucose levels are measured again 60 minutes after injecting the glucose solution.
Series [2] in a line: Accumulation of metals in liver and kidney tissues, intact rats. Particulars: day 1 and day 7 after discontinuation; intraperitoneal. In kind it is in vivo. On the procedure:
The total kidney, liver and muscle homogenates were prepared as follows. Organ excision and homogenization were carried out at a temperature of 1-4°C. Homogenization of tissues was carried out in 50 mM Tris-HCl buffer (pH 7.4) which contained 140 mM NaCl, 1 mM EDTA. The volume of the used buffer in ml was 5 times larger than the mass of isolated organs in grams. The isolated liver was perfused with chilled saline (0.9% NaCl) via the portal vein using a syringe. The minced liver was transferred to a homogenizer with a finely ground Teflon pestle and homogenized in chilled buffer. An isolated pair of kidneys was perfused with chilled saline, released from adipose tissue and minced with scissors. The minced tissue was transferred to a homogenizer with a finely ground Teflon pestle and homogenized in chilled buffer. The total kidney and liver homogenates were centrifuged at 600 g for 15 minutes. The liquid was decanted after the mince settled down and was centrifuged again at 15,000 g for 15 minutes. These two procedures allowed us to get rid of nuclear and mitochondrial debris. Aliquots of the prepared homogenates were frozen in nitrogen (Rybalchenko V.K., Koganov M.M. Structure and function of membrane 1988. - 312 pp).

Series [3] in a line: Blood glucose, streptozotocin-induced type I diabetes model, oral administration. The following applies: Table 22; streptozotocin diabetic rats; 800 µg of zinc per animal orally, 7 doses every other day; n = 10.
Procedure: Number of animals: 10 (males). Animals were housed in cages, 4 per cage, and provided ad libitum access to food and water. To induce diabetes in animals, each animal was given a single injection of streptozotocin solution at a dose of 6 mg per 100 g of animal weight dissolved in 10 mM citrate buffer (pH 4.5) intraperitoneally. The fasted animals were tested for sufficient levels of glycemia two days after induction of diabetes. Rats with blood glucose concentrations within the range >20 mmol/l were used in the experiments.
24 hours later, 7 doses of the test substance were administered to the animals orally. Frequency of administration - every other day.
Dose of administration - 800 µg of zinc per animal.
The glucose concentration in whole blood was measured by the glucose oxidase method using a GlucoDr Auto AGM-4000 blood glucose meter (Allmedicus Co., Ltd., Korea). All procedures were performed according to the manufacturer's instructions
Type I experimental diabetes was induced by a single intraperitoneal injection of streptozotocin solution at a dose of 6 mg per 100 g of animal weight dissolved in 10 mM citrate buffer (pH 4.5). The rats of the control group were administered 10 mM citrate buffer (pH 4.5) by the aforementioned method. The whole blood glucose concentrations were measured two days after induction of diabetes in rats.
Series [4] concerns glycated hemoglobin. The experiment in a line: Glycated hemoglobin, streptozotocin-induced type I diabetes model. Particulars: Table 22; streptozotocin diabetic rats; 800 µg of zinc per animal orally, 7 doses; n = 10.
Procedure: The levels of glycated hemoglobin in whole blood of rats was measured spectrophotometrically in accordance with the established procedure. The assay was performed using a standard assay kit manufactured by Lachema (Czech Republic).
The method for glycated hemoglobin measurement is based on the fact that the stable form of glycohemoglobin (HbA1c) contains 1-deoxy-1-(N-valyl) fructose, which is dehydrated with phosphoric acid to form a colored complex with an absorption spectrum at 433 nm. Neither the labile form of glycohemoglobin nor fetal hemoglobin interferes with the determination of glycated hemoglobin.
Total hemoglobin was measured spectrophotometrically. […] The absorbance was read at a wavelength of 540 nm against the transforming solution. The total hemoglobin fraction was calculated according to the manufacturer's recommendations using the following formula: Hb = (A∗367,7)/(4,92) [formula] where Hb is total hemoglobin, A is optical density of the test sample. […]
Hemolysate was prepared by adding an anticoagulant, 3.8% solution of Na citrate diluted at 1:10, to freshly collected blood. […] The optical density of the samples was measured on a spectrophotometer at a wavelength of 443 nm against distilled water. […]
Concentration of glycohemoglobin was expressed as µmols of fructose per g of hemoglobin (Glycated hemoglobin / Assay kit // Pliva-lachema diagnostica. - 2008. - 10003258.).
A short description of series [5]: Anthropometric values and food consumption, high-fat diet induced obesity model. The following applies: Table 3.
Source text: Before the start of the experiment, animals were maintained on a standard diet of the vivarium. To induce obesity in experimental animals, they were fed high-fat diet which consisted of standard feed (60%), lard (10%), chicken eggs (10%), sucrose (9%), peanuts (5%), dry milk (5%) and sunflower oil (1%) (1%) (see X. H. Shen et al., Exp. Biol. and Med. 235: 47-51 (2010)).
Animals in all groups were weighed once a week after an overnight fast. The amount of feed to be consumed by the animals was determined daily. At the end of a 10-week period of the development of obesity models, 24 hours after the last administration of the zinc isotope solution, animals were removed from their cages and decapitated.
The body mass index (BMI) (the ratio of body weight (g) to the square of body length (cm^2)) was calculated at the end of the experiment.
Animals with an initial weight of 195-205±10 g maintained on the standard diet of the vivarium before performing obesity models were used in the experiments. To induce obesity in experimental animals, they were fed high-fat diet which consisted of standard feed (60%), lard (10%), chicken eggs (10%), sucrose (9%), peanuts (5%), dry milk (5%) and sunflower oil (1%), Shen X. et al., Experimental Biology and Medicine. - 2010. - Nº 235. - P. 47-51.
Animals in all groups were weighed once a week after an overnight fast. The amount of feed to be consumed by the animals was determined daily.
The body mass index (BMI) (the ratio of body weight (g) to the square of body length (cm2)) was calculated at the end of the experiment.
Series [6] relates to IL-1. Briefly: Cytokine profile, immunoenzyme method, obesity model: IL-1. Particulars: Table 7, serum.
Procedure: (§1) Adipose tissue was crushed using cold scissors then transferred to a homogenizer with a loose-fitting Teflon pestle. The tissue was homogenized using approximately 30 strokes of the pestle in cold homogenization buffer (50 mM Tris-HCl (pH 7.4) containing 130 mM NaCl). Primary homogenate thus obtained was centrifuged at 600 g for 15 minutes. The supernatant was carefully collected and re-centrifuged at 15,000 g for 15 minutes. The supernatant was then frozen and stored at -80°C until the experiments.
(§2) The levels of insulin, interleukins and adipokines were determined using immunoenzyme method (Halenova TI et al. RSC Adv. 2016;6: 100046-55), which was carried out in microplates with a sorption capacity in accordance with the soluble protein test procedure. The antigen solution, previously diluted with 0.1 M NaHCOs buffer, pH 9.6, to a concentration of 10 µg/ml, was incubated in the plate wells for 12 hours at 4°C. Unbound material was removed by washing the wells three times with TBS buffer, first with 0.05% Tween-20, then without Tween-20. Non-specific binding sites were blocked by adding a solution of 5% skim milk or a solution of 1% bovine serum albumin to the plate wells and incubating them for 60 minutes at 37°C. […]
(§3) The absorbance at a wavelength of 492 nm was measured using a µQuant microplate spectrophotometer (BioTek Instruments).
Series [7] relates to collagen fibers. Briefly: Morphometric analysis of liver fibrosis, Van Gieson staining, obesity model. The following applies: rats eating a standard diet, treated.
Procedure: To carry out a histochemical reaction to determine the level of liver fibrosis, Van Gieson's picro-fuchsin method of staining was used. To do this, the sections were first soaked with water and then re-stained with Bömer's hematoxylin for 3-4 minutes. The sections were then rinsed in distilled water and stained with Van Gierson's picro-fuchsin for 3 minutes. Once stained, the sections were rinsed in distilled water, dehydrated in 96% alcohol, cleared in dioxane and xylene, and enclosed in a balsam under a coverslip. […] All parameters were measured using ImageJ software.
Series [8] relates to IL-4. Briefly: Cytokine profile, immunoenzyme method, obesity model: IL-4. The following applies: Table 7, serum.
Procedure: as §1, §2, §3
The test system of series [9] is IL-6. Briefly: Cytokine profile, immunoenzyme method, obesity model: IL-6. Particulars: Table 7, serum.
Procedure: as §1, §2, §3
Series [10] concerns IFN-γ. Briefly: Cytokine profile, immunoenzyme method, obesity model: IFN-γ. Particulars: Table 7, serum.
Procedure: as §1, §2, §3
Series [11] has as its system TGF. Briefly: Cytokine profile, immunoenzyme method, obesity model: TGF. Particulars: Table 7, serum.
Procedure: as §1, §2, §3
[12] abbreviates: C+zinc: control rats, standard diet.
Where [13] appears, read: DIO+zinc: diet-induced obesity rats.

With `CC(=O)[O-].CC(=O)[O-].[Zn+2]` [Zn acetate, Zn acetate (Zn(CH3COO)2), reference compound], the “60 min (1 h after glucose administration)” value in [1] (Table 2, blood glucose after glucose 3 g/kg) is 7,2 (2×) and 6,9 and 7,3 and 6,8. In addition, the “0 min (1 h after effector administration)” value in series [1] (Table 2, blood glucose before glucose load, fast overnight) was 4,6 and 5,2 (2×) and 4,9 and 5,1. For the same molecule, in [2], the “accumulation of other metals (manganese, copper) in kidney and liver tissues” value is listed as “within the same concentrations as in the control group of animals”; the “accumulation of zinc in kidney and liver tissues” value is reported as “significantly increased”.

The molecule Zinc asparaginate [^64Zne] yielded a Glucose in series [3] of 20 ± 3 mM. The Glycated hemoglobin in series [4] was 0,51 ± 0,05 µmol fructose/g Hb. In addition, the “Amount of food consumed” value in [5] (setting [12]) turned out to be 32 g/day; in [5] (setting [13]) it was 29 g/day. For the same molecule, the “Calorie content of food” value in [5] (setting [12]) turned out to be 490 kJ/day; in series [5] (setting [13]), 823 kJ/day. The results for the “Weight gain as of the end of the experiment” value in series [5] (setting [12]) and in series [5] (setting [13]) were 59% and 62%, respectively. In addition, the BMI is reported as 0.59 g/cm^2 in series [5] (C+zinc: control rats, standard diet, ^64Zne administration) and 0.65 g/cm^2 in series [5] (DIO+zinc: diet-induced obesity rats, ^64Zne 2.25 mg/ml, 2 ml intragastrically every third day, 10th week). The “Levels, Pro-inflammatory cytokines, IL-1” value in [6] (C+^64Zne: control rats) is reported as 3.5±0.7 RU/mg protein; in [6] (DIO+^64Zne: diet-induced obesity rats) it was 4.2±0.4 RU/mg protein. In addition, the “increase in the area of deposition of collagen fibers” value in series [7] is reported as 2 fold. Also, the “Levels, Anti-inflammatory cytokines, IL-4” value in [8] (C+^64Zne) was 4.6±0.8 RU/mg protein; in series [8] (DIO+^64Zne), 5.6±1.6 RU/mg protein. Moreover, the “Levels, Pro-inflammatory cytokines, IL-6” value is 4.3±0.2 RU/mg protein in series [9] (C+^64Zne) and 5.1±0.4 RU/mg protein in series [9] (DIO+^64Zne). Also, the figures for the “Levels, Pro-inflammatory cytokines, IFN-γ” value in series [10] (C+^64Zne) and in series [10] (DIO+^64Zne) were 4.6±0.6 RU/mg protein and 4.1±1.2 RU/mg protein, respectively. Further, the figures for the “Levels, Anti-inflammatory cytokines, TGF” value in [11] (C+^64Zne) and in series [11] (DIO+^64Zne) were 4.1±0.4 RU/mg protein and 5.7±0.3 # RU/mg protein, respectively. Also, the “accumulation of other metals (manganese, copper) in kidney and liver tissues” value in [2] is recorded as “within the same concentrations as in the control group of animals”. Also, the “accumulation of zinc in kidney and liver tissues” value in series [2] was “significantly increased”.
